Data as given in ChEMBL document CHEMBL3727350, “Agents and methods for treating ischemic and other diseases” (2014).
Active and inactive are the calls of the source. The calls are words filed in the database; no cut-off is given here.

Columns and labels:
[1] = tested on: NCI-H292; experiment: Inhibition of cell proliferation of human NCI-H292 cells at 10 uM incubated for 48 to 96 hrs; assay type: functional
[2] = tested on: B16-F10; experiment: Inhibition of cell proliferation of mouse B16F10 cells at 1.25 to 10 uM incubated for 72 hrs by SRB assay; assay type: functional, cell-based
[3] = biological target: Transient receptor potential cation channel subfamily M member 7 (Mus musculus) (UniProt Q923J1); experiment: Inhibition of Tet-induced Flag-tagged mouse TRPM7 expressed in HEK293 cells assessed as reduction in channel currents at 0.3 to 30 uM by whole cell patch clamp assay; assay type: cell-based
[4] = Inhibition of cell proliferation of human DMS456 cells at 10 uM incubated for 48 to 96 hrs; assay type: functional
[5] = Inhibition of cell proliferation of human DMS53 cells at 10 uM incubated for 48 to 96 hrs; assay type: functional; conditions: DMS-53
[6] = tested on: RXF 393; experiment: Antitumor activity against human RXF393 cells implanted in mouse assessed as inhibition of tumor growth at 20 mg/kg, iv qd; assay type: functional, organism-based
[7] = Toxicity in mouse assessed as maximum tolerated dose; assay type: organism-based; conditions: in vivo
[8] = biological target: Transient receptor potential cation channel subfamily M member 7 (Mus musculus) (UniProt Q923J1); experiment: Inhibition of TRPM7 in mouse primary neuronal cells exposed to oxygen glucose deprivation condition for 1 to 3 hrs assessed as reduction in TRPM7-mediated anoxic cell death dosed after oxygen glucose deprivation condition by propidium iodide uptake assay; conditions: Primary neuron
[9] = tested on: Y79; experiment: Inhibition of cell proliferation of human Y79 cells at 10 uM incubated for 48 to 96 hrs; assay type: functional
[10] = tested on: MDA-MB-231; experiment: Inhibition of cell proliferation of human MDA-MB-231 cells at 10 uM incubated for 48 to 96 hrs; assay type: functional
[11] = biological target: Transient receptor potential cation channel subfamily M member 7 (Rattus norvegicus) (UniProt Q925B3); experiment: Inhibition of TRPM7 in rat H9C2 cells exposed to oxygen glucose deprivation condition for 1 to 6 hrs assessed as reduction in TRPM7-mediated anoxic cell death in presence of 1 uM nifedipine by propidium iodide uptake assay; assay type: cell-based
[12] = biological target: Transient receptor potential cation channel subfamily M member 7 (Mus musculus) (UniProt Q923J1); experiment: Inhibition of Tet-induced Flag-tagged mouse TRPM7 expressed in HEK293 cells assessed as inhibition of channel-mediated cell death in presence of Mg2+ incubated for 24 to 48 hrs by propidium iodide uptake assay; assay type: cell-based; design: concentration or dose not given beside the values
[13] = tested on: B16-F1; experiment: Inhibition of cell proliferation of mouse B16-F1 cells at 1.25 to 10 uM incubated for 72 hrs by SRB assay; assay type: functional, cell-based
[14] = biological target: Transient receptor potential cation channel subfamily M member 7 (Mus musculus) (UniProt Q923J1); experiment: Inhibition of Tet-induced Flag-tagged mouse TRPM7 expressed in HEK293 cells assessed as reduction in channel currents at 2 mM using compound applied intracellularly by whole cell patch clamp assay; assay type: cell-based
[15] = tested on: SW13; experiment: Inhibition of cell proliferation of human SW13 cells at 1.25 to 10 uM incubated for 72 hrs by SRB assay; assay type: functional, cell-based
[16] = tested on: Y79; experiment: Inhibition of cell proliferation of human Y79 cells at 1 uM to 7.5 uM by MTT assay; assay type: functional, cell-based
[17] = tested on: SW13; experiment: Inhibition of cell proliferation of human SW13 cells at 10 uM incubated for 48 to 96 hrs; assay type: functional
[18] = tested on: Y79; experiment: Inhibition of cell migration of human Y79 cells assessed as reduction in cell ability to migrate away from retina in cultured explants at 5 uM; assay type: functional, cell-based
[19] = tested on: WERI; experiment: Inhibition of cell proliferation of human WERI cells at 0.25 uM to 10 uM by MTT assay; assay type: functional, cell-based
[20] = tested on: MCF7; experiment: Inhibition of cell proliferation of human MCF7 cells at 10 uM incubated for 48 to 96 hrs; assay type: functional
[21] = biological target: Transient receptor potential cation channel subfamily M member 7 (Mus musculus) (UniProt Q923J1); experiment: Inhibition of TRPM7 in mouse mouse primary cortical neurons exposed to 2 hrs oxygen glucose deprivation condition assessed as reduction in TRPM7-mediated anoxic cell death at 0.625 to 5 uM pre-incubated for 24 hrs before OGD measured after 20 hrs by propidium iodide uptake assay; assay type: cell-based; conditions: Cerebral cortex neuron
[22] = tested on: B16-F10; experiment: Antitumor activity against mouse B16F10 cells implanted in mouse assessed as inhibition of tumor growth at 20 mg/kg, iv qd; assay type: functional, organism-based
[23] = tested on: A-375; experiment: Inhibition of cell proliferation of human A375 cells at 10 uM incubated for 48 to 96 hrs; assay type: functional
[24] = Inhibition of cell proliferation of human […] cells at 10 uM incubated for 48 to 96 hrs; assay type: functional; conditions: RXF 393
[25] = Inhibition of cell proliferation of mouse B16-F1 cells at 10 uM incubated for 48 to 96 hrs; assay type: functional
[26] = tested on: MDA-MB-231; experiment: Inhibition of cell proliferation of human MDA-MB-231 cells at 1.25 to 10 uM incubated for 72 hrs by SRB assay; assay type: functional, cell-based
[27] = biological target: Transient receptor potential cation channel subfamily M member 7 (Mus musculus) (UniProt Q923J1); experiment: Inhibition of TRPM7 in mouse mouse primary cortical neurons exposed to 2 hrs oxygen glucose deprivation condition assessed as reduction in TRPM7-mediated anoxic cell death measured after 20 hrs by propidium iodide uptake assay; assay type: cell-based; conditions: Cerebral cortex neuron
[28] = tested on: SW13; experiment: Inhibition of cell proliferation of human SW13 cells at 1.25 to 10 uM incubated for 48 hrs by BrdU incorporation assay; assay type: functional, cell-based
[29] = Inhibition of cell proliferation of human HCT116 cells at 10 uM incubated for 48 to 96 hrs; assay type: functional; conditions: HCT-116
[30] = tested on: HeLa; experiment: Inhibition of cell proliferation of human HeLa cells at 1.25 to 10 uM incubated for 48 hrs by BrdU incorporation assay; assay type: functional, cell-based
[31] = tested on: HeLa; experiment: Inhibition of cell proliferation of human HeLa cells at 10 uM incubated for 48 to 96 hrs; assay type: functional
[32] = biological target: Transient receptor potential cation channel subfamily M member 7 (Mus musculus) (UniProt Q923J1); experiment: Inhibition of Tet-induced Flag-tagged mouse TRPM7 expressed in HEK293 cells assessed as reduction in channel currents at 2 mM using compound applied extracellularly by whole cell patch clamp assay; assay type: cell-based
[33] = tested on: U2OS; experiment: Inhibition of cell proliferation of human U2OS cells at 10 uM incubated for 48 to 96 hrs; assay type: functional
[34] = Inhibition of cell proliferation of mouse NIH/3T3 cells at 1.25 to 10 uM incubated for 72 hrs by propidium iodide staining assay; assay type: cell-based; conditions: nih3t3, 72 h
[35] = biological target: Transient receptor potential cation channel subfamily M member 7 (Rattus norvegicus) (UniProt Q925B3); experiment: Inhibition of TRPM7 in rat H9C2 cells assessed as reduction in channel currents at 0.3 to 30 uM by whole cell patch clamp assay; assay type: cell-based
[36] = biological target: Transient receptor potential cation channel subfamily M member 7 (Mus musculus) (UniProt Q923J1); experiment: Inhibition of TRPM7 in mouse primary neuronal cells exposed to oxygen glucose deprivation condition for 1 to 3 hrs assessed as reduction in TRPM7-mediated anoxic cell death dosed before oxygen glucose deprivation condition by propidium iodide uptake assay; conditions: Primary neuron
[37] = Cytotoxic activity against mouse primary cortical neurons assessed as reduction in cell viability at 1 to 7.5 uM incubated for 48 to 72 hrs by MTT assay; assay type: cell-based; conditions: cerebral cortex neuron
[38] = Inhibition of cell proliferation of mouse B16F10 cells at 10 uM incubated for 48 to 96 hrs; assay type: functional; conditions: B16-F10
[39] = Inhibition of cell proliferation of human WERI cells at 10 uM incubated for 48 to 96 hrs; assay type: functional
[40] = tested on: Y79; experiment: Reduction in cell viability in human Y79 cells on rat retinal explants at 5 uM; assay type: functional, cell-based
[41] = tested on: WERI; experiment: Inhibition of cell migration of human WERI cells assessed as reduction in cell ability to migrate away from retina in cultured explants at 1 uM; assay type: functional, cell-based

Sequence of Transient receptor potential cation channel subfamily M member 7 (Mus musculus) (Q923J1 whole entry): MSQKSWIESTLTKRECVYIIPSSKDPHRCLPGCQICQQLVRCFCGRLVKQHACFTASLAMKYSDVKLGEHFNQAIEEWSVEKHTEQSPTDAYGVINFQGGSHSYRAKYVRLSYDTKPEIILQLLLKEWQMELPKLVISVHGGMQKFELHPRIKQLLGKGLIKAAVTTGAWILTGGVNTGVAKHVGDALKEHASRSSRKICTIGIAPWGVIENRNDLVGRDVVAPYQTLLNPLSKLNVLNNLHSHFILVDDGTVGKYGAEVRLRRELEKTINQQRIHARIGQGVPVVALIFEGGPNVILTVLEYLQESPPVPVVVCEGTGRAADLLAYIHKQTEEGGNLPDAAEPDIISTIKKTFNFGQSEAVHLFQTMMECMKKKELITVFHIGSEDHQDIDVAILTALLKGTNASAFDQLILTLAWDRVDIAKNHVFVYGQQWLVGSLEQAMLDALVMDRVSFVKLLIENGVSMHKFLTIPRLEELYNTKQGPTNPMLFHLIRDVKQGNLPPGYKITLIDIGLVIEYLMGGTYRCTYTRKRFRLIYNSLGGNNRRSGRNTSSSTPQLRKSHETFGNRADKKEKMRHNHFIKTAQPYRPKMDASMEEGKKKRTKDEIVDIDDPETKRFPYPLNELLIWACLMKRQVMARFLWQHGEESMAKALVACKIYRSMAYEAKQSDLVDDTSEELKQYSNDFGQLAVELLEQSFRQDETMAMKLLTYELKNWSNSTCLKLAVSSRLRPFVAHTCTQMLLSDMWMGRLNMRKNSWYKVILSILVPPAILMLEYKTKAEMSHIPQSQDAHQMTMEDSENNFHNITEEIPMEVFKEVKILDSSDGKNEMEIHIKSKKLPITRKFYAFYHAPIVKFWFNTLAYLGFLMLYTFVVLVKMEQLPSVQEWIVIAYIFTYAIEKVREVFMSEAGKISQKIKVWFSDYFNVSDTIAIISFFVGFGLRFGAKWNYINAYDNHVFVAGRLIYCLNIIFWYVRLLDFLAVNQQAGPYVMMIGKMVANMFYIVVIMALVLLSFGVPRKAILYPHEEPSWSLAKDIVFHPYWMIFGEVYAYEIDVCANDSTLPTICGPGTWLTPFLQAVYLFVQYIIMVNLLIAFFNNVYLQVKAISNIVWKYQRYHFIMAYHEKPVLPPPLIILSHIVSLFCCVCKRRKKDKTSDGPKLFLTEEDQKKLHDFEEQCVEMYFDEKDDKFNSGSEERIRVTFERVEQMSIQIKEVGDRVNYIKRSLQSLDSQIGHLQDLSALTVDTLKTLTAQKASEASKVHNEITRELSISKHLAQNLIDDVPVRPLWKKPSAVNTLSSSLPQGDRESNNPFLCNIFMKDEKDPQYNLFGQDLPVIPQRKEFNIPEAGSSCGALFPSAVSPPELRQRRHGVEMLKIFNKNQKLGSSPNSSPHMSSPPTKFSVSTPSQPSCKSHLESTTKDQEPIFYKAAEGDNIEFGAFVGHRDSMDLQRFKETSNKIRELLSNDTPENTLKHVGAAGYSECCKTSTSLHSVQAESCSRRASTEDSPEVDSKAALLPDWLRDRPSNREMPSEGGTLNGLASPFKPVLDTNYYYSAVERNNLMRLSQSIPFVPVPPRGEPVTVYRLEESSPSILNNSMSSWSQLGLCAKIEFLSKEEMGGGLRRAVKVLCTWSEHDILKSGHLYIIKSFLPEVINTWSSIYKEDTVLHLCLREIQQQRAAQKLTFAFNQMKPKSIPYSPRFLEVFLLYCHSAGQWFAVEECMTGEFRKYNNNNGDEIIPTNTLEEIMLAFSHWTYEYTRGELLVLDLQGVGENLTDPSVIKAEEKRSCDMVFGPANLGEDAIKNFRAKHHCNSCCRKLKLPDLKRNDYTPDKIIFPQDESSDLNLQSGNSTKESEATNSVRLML
Sequence of Transient receptor potential cation channel subfamily M member 7 (Rattus norvegicus) (Q925B3 whole entry): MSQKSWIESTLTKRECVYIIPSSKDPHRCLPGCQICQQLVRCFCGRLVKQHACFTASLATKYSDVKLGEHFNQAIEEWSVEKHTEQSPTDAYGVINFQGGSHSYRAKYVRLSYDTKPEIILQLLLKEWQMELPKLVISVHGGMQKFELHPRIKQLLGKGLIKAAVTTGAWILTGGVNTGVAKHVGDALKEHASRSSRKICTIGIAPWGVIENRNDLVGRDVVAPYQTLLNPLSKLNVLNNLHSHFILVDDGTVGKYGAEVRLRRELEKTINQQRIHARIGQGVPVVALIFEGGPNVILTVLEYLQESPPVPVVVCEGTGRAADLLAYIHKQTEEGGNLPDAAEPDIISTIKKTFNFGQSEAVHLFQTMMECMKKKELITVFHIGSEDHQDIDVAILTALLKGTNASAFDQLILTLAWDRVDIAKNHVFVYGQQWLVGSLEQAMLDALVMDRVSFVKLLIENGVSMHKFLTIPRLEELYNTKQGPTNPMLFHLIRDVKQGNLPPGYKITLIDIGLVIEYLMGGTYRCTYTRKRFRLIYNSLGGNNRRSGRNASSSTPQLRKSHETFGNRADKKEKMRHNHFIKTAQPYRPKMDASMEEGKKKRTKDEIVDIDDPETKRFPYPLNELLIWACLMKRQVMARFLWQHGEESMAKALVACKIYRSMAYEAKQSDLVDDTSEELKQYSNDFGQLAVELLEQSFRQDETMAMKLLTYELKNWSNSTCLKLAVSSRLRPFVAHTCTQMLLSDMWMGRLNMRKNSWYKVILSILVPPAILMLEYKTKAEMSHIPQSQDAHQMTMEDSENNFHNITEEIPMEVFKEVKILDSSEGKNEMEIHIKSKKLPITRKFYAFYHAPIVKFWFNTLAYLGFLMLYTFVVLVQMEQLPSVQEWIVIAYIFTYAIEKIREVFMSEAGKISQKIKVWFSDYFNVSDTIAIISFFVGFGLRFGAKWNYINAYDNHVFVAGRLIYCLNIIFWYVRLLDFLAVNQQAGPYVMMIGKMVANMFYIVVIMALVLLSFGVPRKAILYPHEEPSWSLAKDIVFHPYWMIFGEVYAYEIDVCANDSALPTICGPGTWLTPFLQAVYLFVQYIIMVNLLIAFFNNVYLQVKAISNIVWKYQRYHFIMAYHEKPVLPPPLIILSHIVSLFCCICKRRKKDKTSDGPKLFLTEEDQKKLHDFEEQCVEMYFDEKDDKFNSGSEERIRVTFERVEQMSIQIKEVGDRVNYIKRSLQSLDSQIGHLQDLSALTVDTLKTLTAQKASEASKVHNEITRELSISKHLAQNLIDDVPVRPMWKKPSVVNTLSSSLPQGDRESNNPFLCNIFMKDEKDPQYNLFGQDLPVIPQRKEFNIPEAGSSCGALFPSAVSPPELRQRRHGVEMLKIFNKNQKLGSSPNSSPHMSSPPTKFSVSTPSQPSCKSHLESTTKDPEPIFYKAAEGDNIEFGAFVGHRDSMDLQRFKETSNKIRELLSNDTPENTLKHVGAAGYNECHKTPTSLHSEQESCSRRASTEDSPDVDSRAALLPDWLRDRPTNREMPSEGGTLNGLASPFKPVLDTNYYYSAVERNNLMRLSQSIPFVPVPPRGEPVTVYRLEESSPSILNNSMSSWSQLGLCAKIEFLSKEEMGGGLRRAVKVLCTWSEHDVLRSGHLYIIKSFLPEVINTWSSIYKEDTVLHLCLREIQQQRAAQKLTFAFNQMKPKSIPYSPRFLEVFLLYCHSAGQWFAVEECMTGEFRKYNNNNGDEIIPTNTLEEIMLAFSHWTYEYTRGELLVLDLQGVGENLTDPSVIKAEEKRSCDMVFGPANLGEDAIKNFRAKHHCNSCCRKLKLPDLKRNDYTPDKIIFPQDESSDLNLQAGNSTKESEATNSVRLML

For `COc1cc2c(cc1OC)C(c1sc3ccccc3c1Cl)=NCC2`, the inhibition at 10 µM [1] was over 20%, the inhibition [2] was “Active” and the inhibition [3] was “Active”. The inhibition at 10 µM [4] was over 20%, the inhibition at 10 µM [5] was over 20% and the TGI [6] was “Active”. For the same molecule, the MTD [7] was under 20 mg/kg, the inhibition [8] was “Active” and the inhibition at 10 µM [9] was over 20%. For the same molecule, the inhibition at 10 µM [10] was over 20%, the inhibition [11] was “Active” and the inhibition [12] was “Active”. The inhibition [13] was “Active”, the inhibition [14] was “inactive” and the inhibition [15] was “Active”. The inhibition [16] was “Active”, the inhibition at 10 µM [17] was over 20% and the inhibition [18] was “Active”. The inhibition [19] was “Active”, the inhibition at 10 µM [20] was over 20% and the inhibition [21] was “Active”. For the same molecule, the TGI [22] was “Active”, the inhibition at 10 µM [23] was over 20% and the inhibition at 10 µM [24] was over 20%. The inhibition at 10 µM [25] was over 20%, the inhibition [26] was “Active” and the inhibition [27] was “Active”. For the same molecule, the inhibition [28] was “Active”, the inhibition at 10 µM [29] was over 20% and the inhibition [30] was “Active”. The inhibition at 10 µM [31] was over 20%, the inhibition [32] was “Active” and the inhibition at 10 µM [33] was over 20%. The Activity [34] was “Non-toxic”, the inhibition [35] was “Active” and the inhibition [36] was “Active”. The Activity [37] was “Non-toxic”, the inhibition at 10 µM [38] was over 20% and the inhibition at 10 µM [39] was over 20%. The inhibition [40] was “Active” and the inhibition [41] was “Active”.
